According to US8633183B2 (priority 2010, dated 2014):

Molecular target: PI3Kalpha (Homo sapiens (Human), UniProt P42336)
Conditions: read-out: IC50 PI3K

Sequence of PI3Kalpha (P42336 whole entry, looked up): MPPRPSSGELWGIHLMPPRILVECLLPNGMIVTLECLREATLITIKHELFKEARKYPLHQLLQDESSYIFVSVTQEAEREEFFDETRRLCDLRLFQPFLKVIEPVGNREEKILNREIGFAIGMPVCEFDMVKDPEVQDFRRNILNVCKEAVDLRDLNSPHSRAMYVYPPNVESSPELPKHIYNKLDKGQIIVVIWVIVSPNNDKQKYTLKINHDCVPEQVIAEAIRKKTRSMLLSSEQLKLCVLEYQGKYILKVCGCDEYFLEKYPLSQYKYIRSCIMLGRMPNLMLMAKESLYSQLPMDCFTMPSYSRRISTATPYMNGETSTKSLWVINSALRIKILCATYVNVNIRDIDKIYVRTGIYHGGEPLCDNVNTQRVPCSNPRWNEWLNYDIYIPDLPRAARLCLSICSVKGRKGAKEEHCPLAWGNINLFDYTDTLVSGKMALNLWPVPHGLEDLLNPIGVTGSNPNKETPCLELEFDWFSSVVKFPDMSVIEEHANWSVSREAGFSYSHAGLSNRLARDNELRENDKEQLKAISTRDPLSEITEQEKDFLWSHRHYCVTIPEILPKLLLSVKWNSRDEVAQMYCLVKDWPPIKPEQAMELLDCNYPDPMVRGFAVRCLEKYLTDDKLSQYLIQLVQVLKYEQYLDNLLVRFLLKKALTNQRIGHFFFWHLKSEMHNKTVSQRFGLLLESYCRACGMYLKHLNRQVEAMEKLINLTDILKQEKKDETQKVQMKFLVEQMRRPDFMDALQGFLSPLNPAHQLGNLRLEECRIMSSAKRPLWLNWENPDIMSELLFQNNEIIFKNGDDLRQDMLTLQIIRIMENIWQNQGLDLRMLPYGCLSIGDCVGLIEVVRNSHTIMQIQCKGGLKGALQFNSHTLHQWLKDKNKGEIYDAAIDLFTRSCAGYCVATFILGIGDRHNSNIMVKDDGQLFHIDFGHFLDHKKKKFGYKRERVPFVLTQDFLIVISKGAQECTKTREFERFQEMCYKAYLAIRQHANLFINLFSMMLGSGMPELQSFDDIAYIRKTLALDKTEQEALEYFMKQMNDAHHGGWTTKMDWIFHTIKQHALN

SMILES	IC50 [µM]
CCc1ncnc(-c2ccc(C(=O)N3CCN(CC4CC4)CC3)c(C)c2)c1C#Cc1ccc(N)nc1 [Example E-116]	0.11
CCc1ncnc(-c2cc(F)c(C(=O)N3CCN(C4COC4)CC3)c(F)c2)c1C#Cc1ccc(N)nc1 [Example E-275]	0.141
CCc1ncnc(-c2ccc(C(=O)N3CCN(CC(F)F)CC3)c(OC)c2)c1C#Cc1ccc(N)nc1 [Example D-47]	0.063
CCc1ncnc(-c2ccc(C(=O)N3CCOC4(CCNCC4)C3)c(F)c2)c1C#Cc1ccc(N)nc1 [Example E-326]	0.367
CCc1ncnc(-c2ccc(C(=O)N3CCCOCC3)c(C)c2)c1C#Cc1ccc(N)nc1 [Example E-133]	0.0779
CCc1ncnc(-c2ccc(C(=O)N3CCC(N4CCC(C)CC4)C3)c(Cl)c2)c1C#Cc1ccc(N)nc1 (centres unmarked) [Example E-76]	0.233
CCc1ncnc(-c2ccc(C(=O)NCC3(C)COC3)c(Cl)c2)c1C#Cc1ccc(N)nc1 [Example E-41]	0.066
Cc1ncnc(-c2cnc3ccccc3c2)c1C#Cc1ccc(N)nc1 [Example C-22]	0.03
CCNc1ccc(C#Cc2c(CC)ncnc2-c2ccc(C(=O)N3CCC4(CC3)CN(C(=O)OC(C)(C)C)C4)c(F)c2)cn1 [Example E-266]	0.56
CCc1ncnc(-c2cc(F)c(C(=O)N3CCC(CN(C)C)CC3)c(Cl)c2)c1C#Cc1ccc(N)nc1 [Example E-283]	0.447
CCc1ncnc(-c2ccc(C(=O)N3CCC(CCO)CC3)c(F)c2)c1C#Cc1ccc(N)nc1 [Example D-104]	0.125
CCc1ncnc(-c2cc(F)c(C(=O)N3CCN(CCOCCO)CC3)c(F)c2)c1C#Cc1ccc(N)nc1 [Example E-302]	0.113
Cc1ncnc(-c2cc(Cl)cc(C(=O)N(C)C)c2)c1C#Cc1ccc(N)nc1 [Example C-38]	0.068
CCc1ncnc(-c2ccc(C(=O)N3CCN(S(=O)(=O)CC)CC3)c(Cl)c2)c1C#Cc1ccc(N)nc1 [Example E-81]	0.0395
CCc1ncnc(-c2ccc(C(=O)N3CCN(CC(F)F)CC3)c(Cl)c2)c1C#Cc1ccc(N)nc1 [Example D-41]	0.177
CCc1ncnc(-c2ccc(C(=O)N(C)OC)c(OC)c2)c1C#Cc1ccc(N)nc1 [Example E-60]	0.0694
CCc1ncnc(-c2cc(F)c(C(=O)N3CCC(C)(O)CC3)c(F)c2)c1C#Cc1ccc(NC)nc1 [Example E-218]	0.362
CCc1ncnc(-c2cc(Cl)c(C(=O)N3CCN4CCC[C@H]4C3)c(Cl)c2)c1C#Cc1ccc(N)nc1 [Example E-194]	0.129
CCc1ncnc(-c2ccc(C(=O)N(C)C3CCS(=O)(=O)C3)c(C)c2)c1C#Cc1ccc(N)nc1 (centres unmarked) [Example E-105]	0.0517
CCc1ncnc(-c2ccc(C(=O)N3CCN(C(C)CC)CC3)c(F)c2)c1C#Cc1ccc(N)nc1 [Example D-129]	0.392

SMILES	IC50 [µM]
CCc1ncnc(-c2ccc(C(=O)N3CCCN(C)CC3)c(Cl)c2)c1C#Cc1ccc(N)nc1 [Example D-154]	0.405
CCc1ncnc(-c2ccc(C(=O)N3CCN(CCOC)CC3)c(F)c2)c1C#Cc1ccc(N)nc1 [Example D-95]	0.145
CCc1ncnc(-c2ccc(C(=O)N3CCN(CCNS(C)(=O)=O)CC3)c(F)c2)c1C#Cc1ccc(N)nc1 [Example E-246]	0.0813
CCc1ncnc(-c2ccc(C(=O)N3CCN(C4COC4)CC3)c(F)c2)c1C#Cc1ccc(N)nc1C [Example E-280]	0.153
CCc1ncnc(-c2ccc(C(=O)N3CCN(Cc4ccccc4)CC3)c(OC)c2)c1C#Cc1ccc(N)nc1 [Example E-69]	0.415
CCc1ncnc(-c2ccc(OC)nc2)c1C#Cc1ccc(N)nc1 [Example C-30]	0.04
CCc1ncnc(-c2ccc(C(=O)N(C)CCN3CCCC3=O)c(F)c2)c1C#Cc1ccc(N)nc1 [Example D-119]	0.055
CCc1ncnc(-c2ccc(C(=O)N3CCN(C4CCS(=O)(=O)C4)CC3)c(OC)c2)c1C#Cc1ccc(N)nc1 (centres unmarked) [Example E-54]	0.165
CCc1ncnc(-c2ccc(C(=O)NCCN3CCOCC3)c(F)c2)c1C#Cc1ccc(N)nc1 [Example D-217]	0.044
COCCN1CCN(C(=O)c2ccc(-c3ncnc(C)c3C#Cc3ccc(N)nc3)cc2)CC1 [Example D-189]	0.118
CCc1ncnc(-c2ccc(C(=O)N3CCN(CCCS(C)(=O)=O)CC3)c(Cl)c2)c1C#Cc1ccc(N)nc1 [Example E-257]	0.0583
Cc1ncnc(-c2ccc(F)c(C(=O)N3CCOCC3)c2)c1C#Cc1ccc(N)nc1 [Example C-39]	0.38
CCc1ncnc(-c2ccc(C(=O)N(C)C)c(F)c2)c1C#Cc1ccc(N)nc1 [Example C-15A]	0.057
CCc1ncnc(-c2cc(F)c(C(=O)N3CCC(CO)CC3)c(Cl)c2)c1C#Cc1ccc(N)nc1 [Example E-242]	0.12
CCc1ncnc(-c2cc(Cl)c(C(=O)N3CCC(CO)CC3)c(Cl)c2)c1C#Cc1ccc(N)nc1 [Example E-205]	0.0489
CCc1ncnc(-c2cc(F)c(C(=O)N(C)C)c(F)c2)c1C#Cc1ccc(N)nc1 [Example E-10]	0.0491
CCc1ncnc(-c2cc(F)c(C(=O)N3CCN(CCOCCO)CC3)c(Cl)c2)c1C#Cc1ccc(N)nc1 [Example E-310]	0.0861
CCc1ncnc(-c2ccc(C(=O)N3CCN(C4CCN(C)CC4)CC3)c(F)c2)c1C#Cc1ccc(N)nc1 [Example D-64]	0.198
CCc1ncnc(-c2cccc(C(=O)NC)c2)c1C#Cc1ccc(N)nc1 [Example C-50]	0.072
CCc1ncnc(-c2ccc(C(=O)N3CCN(CC)CC3)c(OC(F)(F)F)c2)c1C#Cc1ccc(N)nc1 [Example E-226]	0.196

SMILES	IC50 [µM]
CCc1ncnc(-c2ccc(C(=O)N3CCOCC3)c(C)c2)c1C#Cc1ccc(N)nc1 [Example E-92]	0.0595
CCc1ncnc(-c2ccc(C(=O)N3CCN4CCC[C@H]4C3)c(OC(F)(F)F)c2)c1C#Cc1ccc(N)nc1 [Example E-223]	0.157
CCc1ncnc(-c2ccc(C(=O)N3CCN(c4ccccn4)CC3)c(F)c2)c1C#Cc1ccc(N)nc1 [Example D-92]	0.124
CCc1ncnc(-c2ccc(C(=O)N3CCN(CCOCCO)CC3)c(Cl)c2)c1C#Cc1ccc(N)nc1 [Example E-318]	0.107
CCc1ncnc(-c2ccc(C(=O)NC)c(Cl)c2)c1C#Cc1ccc(C)nc1 [Example C-16]	0.236
CCc1ncnc(-c2ccc(C(=O)N3CCN(C(C)COC)CC3)c(F)c2)c1C#Cc1ccc(N)nc1 (centres unmarked) [Example E-291]	0.22
CCc1ncnc(-c2ccc(C(=O)NC)c(F)c2)c1C#Cc1ccc(N)nc1 [Example D-5]	0.225
CCc1ncnc(-c2ccc(C(=O)N(C)OC)cc2)c1C#Cc1ccc(N)nc1 [Example D-225]	0.066
CCc1ncnc(-c2ccc(C(=O)N3CCN(C4CC4)CC3)c(F)c2)c1C#Cc1ccc(N)nc1C [Example D-13]	0.312
CCc1ncnc(-c2cc(F)c(C(=O)N3CCC(C(C)O)CC3)c(Cl)c2)c1C#Cc1ccc(N)nc1 (centres unmarked) [Example E-241]	0.0915
CCc1ncnc(-c2ccc(C(=O)N3CCN(C)C(C)C3)c(F)c2)c1C#Cc1ccc(N)nc1 [Example D-128]	0.157
CCc1ncnc(-c2ccc(C(=O)N(C)O)c(Cl)c2)c1C#Cc1ccc(N)nc1 [Example E-35]	0.0674
CCNc1ccc(C#Cc2c(CC)ncnc2-c2ccc(C(=O)N3CCn4cnnc4C3)c(F)c2)cn1 [Example E-261]	0.0443
CCc1ncnc(-c2ccc(C(=O)N3CC(O)CO3)c(Cl)c2)c1C#Cc1ccc(N)nc1 (centres unmarked) [Example E-73]	0.0883
CCc1ncnc(-c2ccc(C(=O)N3CCN(c4ccccn4)CC3)c(C)c2)c1C#Cc1ccc(N)nc1 [Example E-130]	0.0691
CCc1ncnc(-c2ccc(C(=O)N3CCN4CCC[C@@H]4C3)c(Cl)c2)c1C#Cc1ccc(N)nc1 [Example E-139]	0.16
CCc1ncnc(-c2ccc(C(=O)N(C)CC(C)(C)O)c(F)c2)c1C#Cc1ccc(N)nc1 [Example D-81]	0.084
CCc1cc(-c2ncnc(CC)c2C#Cc2ccc(N)nc2)ccn1 [Example C-3]	0.04
CCc1ncnc(-c2ccc(C(=O)N3CCCCO3)c(F)c2)c1C#Cc1ccc(N)nc1 [Example D-219]	0.105
